Source: patent EP1972624A1, “Benzoxazinones and their use as ultraviolet light absorbers” (Clariant International Ltd., priority 2007, dated 2008)
Values after ≈ are worked out from the molar mass of the structure shown.

Experiments:
Assay type in all cases: physicochemical
[1] = Solubility in organic solvents; conditions: for Solubility in Dowanol PMA: Dowanol PMA (CH3COO2CH(CH3)CH2OCH3)
[2] = Decomposition point (DP) by DSC; conditions: sealed aluminum pan, 40 to 400°C, 10°C/min, nitrogen
Protocol: The decomposition point (DP) is determined using a TA Instruments DSC Q100 apparatus, the compound being incorporated into a sealed aluminum pan. Analysis conditions are as following: Temperature range from 40 to 400°C, heating rate 10°C/min, nitrogen flow of 50 ml/min. Values are determined by single measurement.

[3] = UV/vis: λmax and ε in CH2Cl2 by UV spectrophotometer; conditions: dissolved in CH2Cl2
Protocol: λmax (lambda max) and ε (epsilon) values of the compounds of formula (I) are determined dissolved in CH2Cl2 using an UV spectrophotometer. These values are obtained by balancing the measurements performed on compound solutions at three different concentrations.

Solubility in xylene [1] [mg/mL] | DP (decomposition point) [2] [°C] | εmax [3] [L/mol/cm] | λmax [3] [nm] | SMILES | Solubility in Dowanol PMA [1] [mg/mL]
40 (≈ 89.4 mM) | ≥ 400 | 25900 | 343 | CCCCCCCCCCCc1c(-c2nc3ccccc3c(=O)o2)sc2ccc(C)cc12 [(Ie)] | –
< 5 | ≥ 390 | 29000 | 338 | O=c1oc(-c2sc3ccccc3c2Cl)nc2ccccc12 [(Ij)] | –
< 10 | 352 | 26400 | 337 | CCCC(=O)Oc1c(-c2nc3ccccc3c(=O)o2)sc2ccccc12 [(Ig)] | –
< 10 | ≥ 400 | 25500 | 338 | O=C(Oc1c(-c2nc3ccccc3c(=O)o2)sc2ccccc12)c1ccccc1 [(Ii)] | –
10 (≈ 23.7 mM) | 375 | 24100 | 337 | CCCCC(CC)C(=O)Oc1c(-c2nc3ccccc3c(=O)o2)sc2ccccc12 (stereo not drawn) [(Ih)] | –
< 10 | 351 | 28700 | 337 | CC(=O)Oc1c(-c2nc3ccccc3c(=O)o2)sc2ccccc12 [(If)] | –

Second part, the molecule before the results:

SMILES | Solubility in xylene [1] [mg/mL] | DP (decomposition point) [2] [°C] | εmax [3] [L/mol/cm] | λmax [3] [nm] | Solubility in Dowanol PMA [1] [mg/mL]
CCCCCCCCCCCCCCCCOc1c(-c2nc3ccccc3c(=O)o2)sc2ccccc12 [(Id)] | 100 (≈ 192 mM) | 384 | 31900 | 341 | –
CCCCCCCCCCCCOc1c(-c2nc3ccccc3c(=O)o2)sc2ccccc12 [(Ic)] | 120 (≈ 259 mM) | 381 | 21800 | 342 | –
CCCCC(CC)COc1c(-c2nc3ccccc3c(=O)o2)sc2ccccc12 (stereo not drawn) [(Ib)] | > 100 | 385 | 26200 | 341 | > 50
CCCCCCCCOc1c(-c2nc3ccccc3c(=O)o2)sc2ccccc12 [(Ia)] | > 100 | 370 | 26000 | 341 | > 50
